Data on two molecules can be found in publication PMC8273887 (Journal of Medicinal Chemistry, 2021).

Bounds are passed on as bounds.

The target of data set [1] is chemokine receptor type 4 (CXCR4), C-terminally fused to eYFP (UniProt P61073).
The next data set relates to human erythrocytes. Briefly: Hemolysis analysis. The data set is classed as cell-based. The settings on record: 1 h, 37 °C, absorbance 405 nm, 0.2–25 μM final concentration, two independent experiments. The text has this:
Considering the therapeutic potential of TFF3, it was important to determine any cytotoxic and hemolytic effects early on to avoid problems in later stages of drug development. We therefore assessed cytotoxicity on HEK-293 cells and hemolytic effects in human erythrocytes. We treated the cells with TFF3(C^57Acm) and TFF3 homodimer and used resazurin, a blue dye that produces strong fluorescence when reduced by living cells, as the readout of the number of viable cells.[60] In the hemolytic assay, we evaluated hemoglobin release, an indicator of erythrocyte lysis, upon exposure to the peptides.
Monomeric and homodimeric TFF3 were serially diluted twofold in 0.9% NaCl and seeded (25 μL) in a 384-well polypropylene plate (0.2–25 μM final concentration). […] The cells were counted using a Neubauer hemocytometer and then diluted to 1 × 10^8/mL in 0.9% NaCl. […] Following incubation, the plates were centrifuged at 1000g for 10 min to pellet cells and debris and then 25 μL of the supernatant was transferred into a 384-well flat-bottom PS plate and absorbance (Abs) was read at 405 nm using a Tecan M1000 Pro monochromator plate reader. Percent hemolysis was calculated using the following equation: Hemolysis (%) = (Abssample – Absnegative/Abspositive – Absnegative) × 100. […]

Data set [2] is described as follows: Stability in simulated gastric fluid (SGF). The data set is classed as in vitro ADME, porcine. The settings on record: simulated gastric fluid (SGF) with pepsin, pH 1.3, 15 μL of 1 mM peptide stock in 285 μL SGF, 37 °C, samples 0 min-24 h quenched with 0.2 M Na2CO3, RP-HPLC/LC-MS peak area as % of time 0, exponential one-phase decay fit, read-out: t1/2 in SGF. As to the method: (§1) We exposed TFF3(C^57Acm) and TFF3 homodimer to simulated gastric fluid (SGF, containing pepsin, pH 1.3) and simulated intestinal fluid (SIF, containing pancreatic enzymes, pH 6.8), and monitored the mixture over 24 h by analytical RP-HPLC and MS. The N- and C-termini of TFF3 and its homodimer were readily truncated in both SGF and SIF (Figure 4A,B). In SGF, TFF3 was cleaved at Leu^6/Ser^7 followed by cleavage at Glu^54/Ala^55 (t1/2 < 5 min). In SIF, TFF3 was cleaved first at Thr^58/Phe^59 followed by cleavage at Leu^6/Ser^7, Glu^56/Cys^57, and Ala^55/Glu^56 (t1/2 < 5 min). TFF3 homodimer, in both SGF (t1/2 ∼ 40 min) and SIF (t1/2 < 5 min), was first broken down to monomeric TFF3 through simultaneous cleavage at Leu^6 and Glu^54 or Ala^55, eventually leading to the same metabolites as TFF3 (Figure 4B).
(§2) Simulated gastric fluid (SGF) was prepared by dissolving 20 mg of NaCl and 8 mg of pepsin in 70 μL of concentrated HCl (32%), and the volume was diluted to 10 mL with Milli-Q water (pH 1.3).[76],[77] Simulated intestinal fluid (SIF) was prepared by dissolving 68 mg of KH2PO4 in 500 μL of Milli-Q water followed by the addition of 800 μL of 0.2 M NaOH and 100 mg of porcine pancreatin, and the volume was adjusted to 10 mL with Milli-Q water (pH 6.8).[76],[77] Peptide stock solution (1 mM; 15 μL) was added to SGF (285 μL) or SIF (285 μL) and incubated at 37 °C. Samples (30 μL) from SGF and SIF were taken at 0, 5, 15, and 30 min and 1, 2, 4, 8, and 24 h timepoints and subsequently quenched with 30 μL of 0.2 M Na2CO3 (SGF) or 30 μL of 5% aqueous TFA (SIF). The samples were analyzed by analytical RP-HPLC (30 μL) and/or LC-MS (20 μL). The amount of peptide remaining was determined by measuring the peak area and expressing it as a % of the peak area at time 0. Peptide half-life (t1/2) was determined from the peptide degradation profiles using an exponential one-phase decay fit in Prism (version 7, GraphPad, La Jolla). LC-MS analysis was performed in a Q-Star Pulsar mass spectrometer (SCIEX, Ontario, Canada), and the raw data spectra were processed using the peptide reconstruction tool in the BioAnalyst software to identify the mass of the metabolites. The stability of the disulfide bonds was assessed through incubation of the peptides (10 μM) with 10 equiv of reduced glutathione (GSH; 100 μM) in sodium phosphate (50 mM) buffer at pH 7.2. Samples were taken at timepoints 0, 4, 8, and 24 h, quenched by adding 10% TFA, and analyzed by analytical RP-HPLC using an analytical C3 column (Agilent Zorbax SB-C3, 5 μm, 2.1 mm × 250 mm, 300 Å).

Data set [3] in a line: Stability in simulated intestinal fluid (SIF). The data set is classed as in vitro ADME. The settings on record: pig, simulated intestinal fluid (SIF) with porcine pancreatin, pH 6.8, 15 μL of 1 mM peptide stock in 285 μL SIF, 37 °C, samples 0 min-24 h quenched with 5% aqueous TFA, RP-HPLC/LC-MS peak area as % of time 0, exponential one-phase decay fit, read-out: t1/2 in SIF. As to the method:
as §1, §2

Another data set addresses T1, CXCR4 (Homo sapiens, UniProt P61073).
T1 construct: expressed in transfected cells; host or cells: COS-7 (African green monkey), transient co-transfection with GαΔ6qi4myr
Briefly: Inositol 1 phosphate (IP1) accumulation assay (HTRF) in COS-7 cells transfected with CXCR4. The class given is cell-based. The settings on record: 5 min preincubation with peptide (1 or 10 μM final), then CXCL12 10^-12 to 10^-5 M; COS-7/CXCR4; IP1 HTRF. An excerpt:
CXCR4 is a member of the G protein-coupled receptor (GPCR) family[58] and proposed as a target receptor for TFF3 to mediate wound healing.[30],[39] We therefore pharmacologically characterized TFF3(C^57Acm) and TFF3 homodimer at CXCR4. We used a chimeric Gαiq protein to switch the pathway to the Gαq signaling, which leads to the activation of the phospholipase and allows measurement of CXCR4 activation through the production of inositol 1 phosphate (IP1).[61]−[63] We measured IP1 accumulation upon stimulation with TFF3(C^57Acm) and TFF3 homodimer in fibroblast-like COS-7 cells transiently transfected with CXCR4.[58] This is a competitive immunoassay, based on the HTRF technology, where native IP1 produced by cells compete with labeled IP1 (acceptor) for binding to anti-IP1-cryptate (donor). The specific signal (i.e., Förster resonance energy transfer, FRET) is inversely proportional to the concentration of IP1 in the sample. The calculation of the fluorescence ratio eliminates possible medium interferences.[64]
COS-7 cells (fibroblast-like cells from African green monkey) were transiently co-transfected with the CXCR4 C-terminally fused to eYFP in pVitro2 vector and the untagged chimeric G protein GαΔ6qi4myr in pcDNA3.1 plasmid using Metafectene Pro according to manufacturer’s protocol. The cells were cultured in DMEM with higher glucose and supplemented with 10% FCS without any antibiotics at 37 °C and 5% CO2 in 95% humidity. Cisbio IP-One Gq assay kit was used according to previous description with minor modifications to measure activity.[80] Briefly, a standard curve was prepared in HBSS (Hanks’ balanced salt solution) with 20 mM LiCl to determine the linear range of the assay and 10 000 cells/well were cultured overnight in a 384-well flat white plate (Greiner Bio-one GmbH, Frickenhausen, Germany). TFF3 and its homodimer as well as CXCL12 were diluted in HBSS containing 20 mM LiCl. Stimulation was carried out for 1 h in triplicate at 37 °C. Subsequently, 3 μL of IP1-d2 and 3 μL of Ab-cryptate in lysis buffer were added to the wells and incubated on a tumbler for 60 min at 25 °C. Fluorescence was then measured at 620 and 665 nm and the HTRF (homogeneous time-resolved fluorescence) ratio (665/620 nm) was calculated. Data analysis was performed with Prism (version 7, GraphPad, La Jolla). Tested compounds were normalized to CXCL12 wild type, with the highest HTRF ratio set to 0% and the lowest HTRF ratio set to 100% response. […] The final concentration range of 10^–12 to 10^–5 M to CXCL12 and 1 or 10 μM to TFF3(C^57Acm) and TFF3 homodimer was achieved by adding the compounds from a threefold concentrated stock solution.

Sequence of chemokine receptor type 4 (CXCR4), C-terminally fused to eYFP (P61073 whole entry, the tested form may be a part): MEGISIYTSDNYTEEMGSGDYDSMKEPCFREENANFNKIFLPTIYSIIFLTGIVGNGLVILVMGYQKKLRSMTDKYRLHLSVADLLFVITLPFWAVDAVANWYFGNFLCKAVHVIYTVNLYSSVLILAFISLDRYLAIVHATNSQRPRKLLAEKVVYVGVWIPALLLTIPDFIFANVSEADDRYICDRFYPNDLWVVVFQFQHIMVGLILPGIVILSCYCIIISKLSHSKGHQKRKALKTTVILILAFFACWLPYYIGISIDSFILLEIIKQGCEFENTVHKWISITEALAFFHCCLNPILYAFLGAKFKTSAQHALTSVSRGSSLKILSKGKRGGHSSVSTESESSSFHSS
T1 sequence (P61073 whole entry): as the sequence (P61073 whole entry, the tested form may be a part) above
Sequence of C-X-C motif chemokine 12 (CXCL12), recombinant human, with an additional N-terminal methionine (P48061 other isoform, or with tags, fused parts or gaps): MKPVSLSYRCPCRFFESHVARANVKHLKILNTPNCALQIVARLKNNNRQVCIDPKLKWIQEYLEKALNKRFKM

Consider “C-X-C motif chemokine 12 (CXCL12), recombinant human, with an additional N-terminal methionine (from UniProt P48061 22-93) (ligand)”, for which the EC50 of IP1 accumulation (HTRF, IP-One Gq kit) in COS-7 cells transfected with CXCR4 and a chimeric G protein; CXCL12 10^-12 to 10^-5 M in data set [1] came out at 5.9 nM.
`CC[C@H](C)[C@@H]1NC(=O)[C@H](CCCNC(=N)N)NC(=O)[C@H](CO)NC(=O)[C@H](CC(=O)O)NC(=O)[C@H](Cc2ccccc2)NC(=O)[C@@H]2CSSC[C@H](NC(=O)[C@H](CCC(N)=O)NC(=O)[C@H](CC(N)=O)NC(=O)[C@H](C)NC(=O)[C@H](CO)NC(=O)[C@H](CC(C)C)NC(=O)CNC(=O)[C@@H](NC(=O)[C@H](Cc3ccc(O)cc3)NC(=O)[C@H](CCC(=O)O)NC(=O)[C@@H](N)CCC(=O)O)C(C)C)C(=O)N[C@@H](C)C(=O)N[C@@H](C(C)C)C(=O)N3CCC[C@H]3C(=O)N[C@@H](C)C(=O)N[C@@H](CCCCN)C(=O)N[C@@H](CC(=O)O)C(=O)N[C@@H](CCCNC(=N)N)C(=O)N[C@@H](C(C)C)C(=O)N[C@@H](CC(=O)O)C(=O)N[C@H]3CSSC[C@H](NC(=O)CNC(=O)[C@H](CCCNC(=N)N)NC(=O)[C@H](CC(N)=O)NC(=O)[C@H](CC(N)=O)NC(=O)[C@H](CSSC[C@@H](C(=O)N[C@@H](Cc4ccccc4)C(=O)N[C@@H](CCCCN)C(=O)N4CCC[C@H]4C(=O)N[C@@H](CC(C)C)C(=O)N[C@@H](CCC(N)=O)C(=O)N[C@@H](CCC(=O)O)C(=O)N[C@@H](C)C(=O)N[C@@H](CCC(=O)O)C(=O)N[C@@H](CSSC[C@H](NC(=O)[C@H](CCC(=O)O)NC(=O)[C@H](C)NC(=O)[C@H](CCC(=O)O)NC(=O)[C@H](CCC(N)=O)NC(=O)[C@H](CC(C)C)NC(=O)[C@@H]4CCCN4C(=O)[C@H](CCCCN)NC(=O)[C@H](Cc4ccccc4)NC(=O)[C@@H]4CSSC[C@@H]5NC(=O)[C@H](CCC(=O)O)NC(=O)[C@H](CCCCN)NC(=O)[C@@H]6CCCN6C(=O)[C@H]([C@@H](C)O)NC(=O)[C@H](C(C)C)NC(=O)[C@H](Cc6c[nH]cn6)NC(=O)[C@@H]6CCCN6C(=O)[C@H](Cc6ccc(O)cc6)NC(=O)CNC(=O)[C@@H]6CSSC[C@H](NC(=O)CNC(=O)[C@H](CCCNC(=N)N)NC(=O)[C@H](CC(N)=O)NC(=O)[C@H](CC(N)=O)NC5=O)C(=O)N[C@@H](CSSC[C@H](NC(=O)[C@H](CCC(N)=O)NC(=O)[C@H](CC(N)=O)NC(=O)[C@H](C)NC(=O)[C@H](CO)NC(=O)[C@H](CC(C)C)NC(=O)CNC(=O)[C@@H](NC(=O)[C@H](Cc5ccc(O)cc5)NC(=O)[C@H](CCC(=O)O)NC(=O)[C@@H](N)CCC(=O)O)C(C)C)C(=O)N[C@@H](C)C(=O)N[C@@H](C(C)C)C(=O)N5CCC[C@H]5C(=O)N[C@@H](C)C(=O)N[C@@H](CCCCN)C(=O)N[C@@H](CC(=O)O)C(=O)N[C@@H](CCCNC(=N)N)C(=O)N[C@@H](C(C)C)C(=O)N[C@@H](CC(=O)O)C(=O)N6)C(=O)N[C@@H](Cc5ccccc5)C(=O)N[C@@H](CC(=O)O)C(=O)N[C@@H](CO)C(=O)N[C@@H](CCCNC(=N)N)C(=O)N[C@@H]([C@@H](C)CC)C(=O)N5CCC[C@H]5C(=O)NCC(=O)N[C@@H](C(C)C)C(=O)N5CCC[C@H]5C(=O)N[C@@H](Cc5c[nH]c6ccccc56)C(=O)N4)C(=O)N[C@H](C(=O)N[C@@H](Cc4ccccc4)C(=O)O)[C@@H](C)O)C(=O)N[C@H](C(=O)N[C@@H](Cc4ccccc4)C(=O)O)[C@@H](C)O)NC(=O)[C@H](Cc4c[nH]c5ccccc45)NC(=O)[C@@H]4CCCN4C(=O)[C@H](C(C)C)NC(=O)CNC(=O)[C@@H]4CCCN4C1=O)NC(=O)[C@H](CCC(=O)O)NC(=O)[C@H](CCCCN)NC(=O)[C@@H]1CCCN1C(=O)[C@H]([C@@H](C)O)NC(=O)[C@H](C(C)C)NC(=O)[C@H](Cc1c[nH]cn1)NC(=O)[C@@H]1CCCN1C(=O)[C@H](Cc1ccc(O)cc1)NC(=O)CNC3=O)C(=O)N2` [TFF3 homodimer]: the “concentration up to which no hemolytic effect was displayed” value in the data set with human erythrocytes was greater than 25 µM. Also, the half-life at 50 μM in data set [2] is roughly 40 min; in data set [3], less than 5 min. Moreover, the “effect on the EC50 of CXCL12 at CXCR4 (antagonism)” value at CXCR4 is recorded as “not affected”.
